# Data published in US20240139188A1, “Arylamide Compounds For Treatment And Prevention Of Fungal Infections” (priority 2022, published 2024).
# Assays:
# [1] = test system: A. fumigatus; assay: Protein kinase inhibitor (PKI) library screen with or without BRI; conditions: for growth, PKI (20 μM): PKI 20 μM alone; for growth, PKI (20 μM) + BRI (20 μM): PKI 20 μM together with BRI 20 μM; for activity at 20 µM: Aspergillus fumigatus, 48 h, read-out: growth, PKI (20 μM)
# Method: A protein kinase inhibitors (PKI) library was also screened in combination with BRI. In total, 58 PKI were analyzed. Briefly, 100 μL of liquid MM containing 2.5×10^3 conidia/mL of the A. fumigatus wild-type strain plus 10% alamar blue was inoculated with increasing concentration of PKI (5-80 μM) in the presence (or not) of BRI (20μM) and incubated 48 hours at 37° C. without shaking. […] Plates were incubated for 48 hours at 37° C. without shaking. All experiments containing alamar blue were, after 48 hours incubation, read spectrophotometically by fluorescence and analyzed as previously described. Experiments were repeated at least three times.
# To assess the mechanism of action of BRI, a collection of 58 protein kinase inhibitors (PKI, at a concentration of 20 μM; Table 4) was screened for A. fumigatus growth and corresponding metabolic activity alone or together with 20 μM BRI (Table 4).
# [2] = test system: Aspergillus fumigatus; assay: In vitro susceptibility (MIC), macrobroth dilution; assay type: cell-based; conditions: A. fumigatus 10AF, drug alone
Compound,"growth, PKI (20 μM) [1]","growth, PKI (20 μM) + BRI (20 μM) [1]",activity at 20 µM [1] [%],MIC50 ([2]; lowest concentration causing 50% decrease in growth vs untreated control) [µg/mL],MIC100 ([2]; lowest concentration without growth) [µg/mL]
Nc1ncnc2c1c(I)cn2[C@@H]1O[C@H](CO)[C@@H](O)[C@H]1O [5 + iodo tubercidin],+ (+: growth ≤60% compared to no treatment),++ (++: growth ≥80% compared to no treatment),–,–,–
Clc1ccc(C2(c3ccc(-c4cn[nH]c4)cc3)CCNCC2)cc1 [AT7867],++ (++: growth ≥80% compared to no treatment),++ (++: growth ≥80% compared to no treatment),–,–,–
N#Cc1ccc2[nH]c(O)c(-c3ccc(CN4CCOCC4)cn3)c2c1 [AZD1080],–,++ (++: growth ≥80% compared to no treatment),> 80,–,–
COc1ccc(-c2ccc3c(N4CCOC[C@@H]4C)nc(N4CCOC[C@@H]4C)nc3n2)cc1CO [AZD + 8055],++ (++: growth ≥80% compared to no treatment),++ (++: growth ≥80% compared to no treatment),–,–,–
O=C(NCCCNc1nc(Nc2cccc(NC(=O)N3CCCC3)c2)ncc1I)c1cccs1 [BX + 795],++ (++: growth ≥80% compared to no treatment),++ (++: growth ≥80% compared to no treatment),–,–,–
CCN1C(=O)CNc2ncc(-c3ccc(-c4nc[nH]n4)nc3C)nc21 [CC + 115],++ (++: growth ≥80% compared to no treatment),++ (++: growth ≥80% compared to no treatment),–,–,–
Cc1cnc(-c2cnc(NCCNc3ccc(C#N)cn3)nc2-c2ccc(Cl)cc2Cl)[nH]1 [CHIR + 99021],++ (++: growth ≥80% compared to no treatment),++ (++: growth ≥80% compared to no treatment),–,–,–
O=C(O)c1ccc2c(c1)nc(Nc1cccc(Cl)c1)c1cnccc12 [CX + 4945],++ (++: growth ≥80% compared to no treatment),++ (++: growth ≥80% compared to no treatment),–,–,–
NC(=O)c1ccc(-c2nc(-c3ccc4c(c3)OCCO4)c(-c3ccccn3)[nH]2)cc1 [D4476],++ (++: growth ≥80% compared to no treatment),++ (++: growth ≥80% compared to no treatment),–,–,–
CCn1c(=O)c(-c2ccc(-c3cncs3)cc2Cl)cc2cnc(Nc3ccc(N4CCN(C)CC4)cc3)nc21 [FRAX597],++ (++: growth ≥80% compared to no treatment),++ (++: growth ≥80% compared to no treatment),–,–,–
Nc1nc(=O)[nH]cc1F [Flucytosine (FLCY)],–,–,–,>64,>64
CNc1ncc2cc(-c3ccc(-c4cccc(C)n4)cc3Cl)c(=O)n(C[C@H]3OC[C@H](N)CO3)c2n1 [G5555],–,++ (++: growth ≥80% compared to no treatment),> 80,–,–
COc1cc2c(Nc3cccc(NC(=O)c4ccccc4)c3)ncnc2cc1OCCCN1CCOCC1 [GSK223810A],–,++ (++: growth ≥80% compared to no treatment),> 80,–,–
NS(=O)(=O)c1ccc(N/N=C2\C(=O)Nc3ccc(C(=O)NCCCn4ccnc4)cc32)cc1 [GW290597X],++ (++: growth ≥80% compared to no treatment),++ (++: growth ≥80% compared to no treatment),–,–,–
COc1ccc2[nH]c3c4[nH]c5ccc(OC)cc5c4c4c(c3c2c1)C(=O)NC4=O [GW296115X],++ (++: growth ≥80% compared to no treatment),++ (++: growth ≥80% compared to no treatment),–,–,–
NS(=O)(=O)c1ccc(N/N=C2\C(=O)Nc3ccc(C(=O)NCc4ccncc4)cc32)cc1 [GW300657X],++ (++: growth ≥80% compared to no treatment),++ (++: growth ≥80% compared to no treatment),–,–,–
NS(=O)(=O)c1ccc(N/N=C2\C(=O)Nc3ccc(C(=O)NCCc4c[nH]cn4)cc32)cc1 [GW300660X],++ (++: growth ≥80% compared to no treatment),++ (++: growth ≥80% compared to no treatment),–,–,–
O=C1Nc2ccc(I)cc2C1=Cc1cc(Br)c(O)c(Br)c1 [GW305074X],++ (++: growth ≥80% compared to no treatment),++ (++: growth ≥80% compared to no treatment),–,–,–
CC(C)COC(=O)c1ccc2c(c1)/C(=C/Nc1ccc(S(N)(=O)=O)cc1)C(=O)N2 [GW416981X],++ (++: growth ≥80% compared to no treatment),++ (++: growth ≥80% compared to no treatment),–,–,–
Fc1ccc(-c2nn3ccccc3c2-c2ccncc2)cc1 [GW434756X],++ (++: growth ≥80% compared to no treatment),++ (++: growth ≥80% compared to no treatment),–,–,–
O=C1NC(=O)C(c2cnc3ccccn23)=C1c1cn2c3c(cc(F)cc13)CN(C(=O)N1CCCCC1)CC2 [LY2090314],–,++ (++: growth ≥80% compared to no treatment),> 80,–,–
C[C@@]1(c2ncncc2F)NC(=O)c2cc(-c3cn[nH]c3)ccc21 [LY3177833],++ (++: growth ≥80% compared to no treatment),++ (++: growth ≥80% compared to no treatment),–,–,–
Cc1nc(Nc2n[nH]c3c2CN(C(=O)N[C@H](CN(C)C)c2ccccc2)C3(C)C)c2sccc2n1 [PF + 3758309],++ (++: growth ≥80% compared to no treatment),++ (++: growth ≥80% compared to no treatment),–,–,–

Compound,"growth, PKI (20 μM) [1]","growth, PKI (20 μM) + BRI (20 μM) [1]",activity at 20 µM [1] [%],MIC50 ([2]; lowest concentration causing 50% decrease in growth vs untreated control) [µg/mL],MIC100 ([2]; lowest concentration without growth) [µg/mL]
CCc1cncnc1N1CCN(Cc2nc3ccc(C(F)(F)F)cc3[nH]2)CC1 [PF + 4708671],++ (++: growth ≥80% compared to no treatment),++ (++: growth ≥80% compared to no treatment),–,–,–
O=C1NCCc2[nH]c(-c3ccncc3)cc21 [PHA + 767491],++ (++: growth ≥80% compared to no treatment),++ (++: growth ≥80% compared to no treatment),–,–,–
Cn1cc(C2=C(c3ccc(Cl)cc3Cl)C(=O)NC2=O)c2ccccc21 [SB 216763],–,++ (++: growth ≥80% compared to no treatment),> 80,–,–
C[S+]([O-])c1ccc(-c2nc(-c3ccc(F)cc3)c(-c3ccncc3)[nH]2)cc1 (stereo not drawn) [SB + 203580],++ (++: growth ≥80% compared to no treatment),++ (++: growth ≥80% compared to no treatment),–,–,–
O=C(Nc1ccc2[nH]nc(-c3ccncc3)c2c1)[C@@H]1CCN(CC(=O)N2CCN(c3ccc(-c4ncccn4)cc3)CC2)C1 [SCH772984],–,++ (++: growth ≥80% compared to no treatment),> 80,–,–
CNC(=O)c1cc(Oc2ccc(NC(=O)Nc3ccc(Cl)c(C(F)(F)F)c3)cc2)ccn1 [Sorafenib],–,++ (++: growth ≥80% compared to no treatment),> 80,–,–
CCc1nc(-c2cccc(C)c2)c(-c2ccnc(NC(=O)c3ccccc3)c2)s1 [TAK + 715],++ (++: growth ≥80% compared to no treatment),++ (++: growth ≥80% compared to no treatment),–,–,–
Cc1ccc(-c2csc3ncnc(SCCC(=O)O)c23)cc1 [TTP 22],++ (++: growth ≥80% compared to no treatment),++ (++: growth ≥80% compared to no treatment),–,–,–
Nc1ccc(-c2ccc3ncc4ccc(=O)n(-c5cccc(C(F)(F)F)c5)c4c3c2)cn1 [Torin 2],++ (++: growth ≥80% compared to no treatment),++ (++: growth ≥80% compared to no treatment),–,–,–
O=c1ncn2nc(Sc3ccc(F)cc3F)ccc2c1-c1c(Cl)cccc1Cl [VX + 745],++ (++: growth ≥80% compared to no treatment),++ (++: growth ≥80% compared to no treatment),–,–,–
O=c1[nH]c(C2CCCN2)nc2c1oc1ccc(Cl)cc12 (stereo not drawn) [XL413],++ (++: growth ≥80% compared to no treatment),++ (++: growth ≥80% compared to no treatment),–,–,–
CCOc1cc(N2CCC(O)CC2)ccc1Nc1ncc2c(n1)N(C)c1ccccc1C(=O)N2C [XMD8 + 92],++ (++: growth ≥80% compared to no treatment),++ (++: growth ≥80% compared to no treatment),–,–,–
CC1(N)CCN(c2cccnc2NC(=O)c2nc(-c3ncccc3C(F)(F)F)cnc2N)CC1 [darovasertib],–,++ (++: growth ≥80% compared to no treatment),> 80,–,–
Cn1cc(C2=C(c3cn(C4CCN(Cc5ccccn5)CC4)c4ccccc34)C(=O)NC2=O)c2ccccc21 [enzastaurin],–,++ (++: growth ≥80% compared to no treatment),> 80,–,–
CC(C)(C)Cn1c(N)nc2ccc(-c3[nH]c(C(C)(C)C)nc3-c3ccc(F)cc3)nc21 [ralimetinib],–,++ (++: growth ≥80% compared to no treatment),> 80,–,–
COc1cc(F)c(F)c(Nc2ccc(I)cc2F)c1NS(=O)(=O)C1(C[C@H](O)CO)CC1 [refametinib],–,++ (++: growth ≥80% compared to no treatment),> 80,–,–
Cn1cnc2c(F)c(Nc3ccc(Br)cc3Cl)c(C(=O)NOCCO)cc21 [selumetinib],–,++ (++: growth ≥80% compared to no treatment),> 80,–,–
CNC(=O)c1cccc(-c2ccc3c(N4CCOC[C@@H]4C)nc(N4CCOC[C@@H]4C)nc3n2)c1 [vistusertib],–,++ (++: growth ≥80% compared to no treatment),> 80,–,–
LY + 2584702,++ (++: growth ≥80% compared to no treatment),++ (++: growth ≥80% compared to no treatment),–,–,–
MK + 8353,++ (++: growth ≥80% compared to no treatment),++ (++: growth ≥80% compared to no treatment),–,–,–
PF + 670462,++ (++: growth ≥80% compared to no treatment),++ (++: growth ≥80% compared to no treatment),–,–,–
SR + 3677,++ (++: growth ≥80% compared to no treatment),++ (++: growth ≥80% compared to no treatment),–,–,–
